Where “and” joins values, the source holds several entries; their conditions need not be identical. Equal entries are not always repeated. HELM strings list units from the 5' end as sugar, base in round brackets, then linkage (d deoxyribose, r ribose, m 2'-O-methyl, p phosphodiester). Strings are as the collection lists them, not checked against the first reports. ss, as = sense and antisense strand; [lna] = locked nucleic acid (LNA); [s4r] = 4'-thioribose; [fl2r] = 2'-fluoro

Here are results for 19 substances from the OligoGym collection.
Note: test system not given here.

For the data set the following is noted: siRNA.
The substance “RNA1{r(C)p.r(U)p.r(C)p.r(C)p.r(U)p.r(U)p.m(C)p.r(A)p.r(U)p.r(U)p.r(C)p.m(C)p.r(A)p.r(G)p.r(C)p.r(C)p.m(U)p.r(A)p.r(U)p.r(T)p.r(T)}|RNA2{r(A)p.m(U)p.r(A)p.r(G)p.r(G)p.r(C)p.m(U)p.r(G)p.r(G)p.r(A)p.r(A)p.m(U)p.r(G)p.r(A)p.r(A)p.r(G)p.r(G)p.r(A)p.r(G)p.r(T)p.r(T)}$$$RNA1{StrandType:ss}|RNA2{StrandType:as}$” yielded a target mRNA knockdown of 78%.
In turn, “RNA1{r(C)p.r(G)p.r(U)p.r(A)p.r(C)p.r(G)p.r(C)p.r(G)p.r(G)p.r(A)p.r(A)p.r(U)p.r(A)p.r(C)p.r(U)p.r(U)p.r(C)p.r(G)p.r(A)p.r(T)p.r(T)}|RNA2{[s4r](U)p.[s4r](C)p.[s4r](G)p.[s4r](A)p.[s4r](A)p.[s4r](G)p.r(U)p.r(A)p.r(U)p.r(U)p.r(C)p.r(C)p.r(G)p.[s4r](C)p.[s4r](G)p.[s4r](U)p.[s4r](A)p.[s4r](C)p.[s4r](G)p.r(T)p.r(T)}$$$RNA1{StrandType:ss}|RNA2{StrandType:as}$” registered a target mRNA knockdown of 22.8%.
Regarding “RNA1{[s4r](A)p.[s4r](A)p.[s4r](A)p.[s4r](C)p.r(A)p.r(U)p.r(G)p.r(C)p.r(A)p.r(G)p.r(A)p.r(A)p.r(A)p.r(A)p.r(U)p.[s4r](A)p.[s4r](C)p.[s4r](C)p.[s4r](U)p.r(T)p.r(T)}|RNA2{[s4r](C)p.[s4r](A)p.r(G)p.r(C)p.r(A)p.r(U)p.r(U)p.r(U)p.r(U)p.r(C)p.r(U)p.r(G)p.r(C)p.r(A)p.r(U)p.r(G)p.r(U)p.[s4r](U)p.[s4r](U)p.r(T)p.r(T)}$$$RNA1{StrandType:ss}|RNA2{StrandType:as}$”, the target mRNA knockdown came to 80.8%.
“RNA1{m(U)p.r(C)p.m(U)p.r(A)p.m(C)p.r(A)p.m(C)p.r(C)p.m(G)p.r(C)p.m(G)p.r(C)p.m(C)p.r(C)p.m(C)p.r(C)p.m(C)p.r(U)p.m(C)p.r(T)p.r(T)}|RNA2{r(G)p.r(A)p.r(G)p.r(G)p.r(G)p.r(G)p.r(G)p.r(G)p.r(C)p.r(G)p.r(C)p.r(G)p.r(G)p.r(U)p.r(G)p.r(U)p.r(A)p.r(G)p.r(A)p.r(T)p.r(T)}$$$RNA1{StrandType:ss}|RNA2{StrandType:as}$” gave a target mRNA knockdown of 39%.
“RNA1{r(G)p.r(A)p.r(A)p.r(G)p.r(A)p.[fl2r](U)p.r(A)p.r(G)p.r(G)p.r(A)p.r(A)p.r(G)p.r(G)p.r(G)p.r(G)p.[fl2r](C)p.[fl2r](U)p.[fl2r](U)p.[fl2r](C)p.r(T)p.r(T)}|RNA2{r(G)p.r(A)p.r(A)p.r(G)p.r(C)p.r(C)p.r(C)p.r(C)p.r(U)p.r(U)p.r(C)p.r(C)p.r(U)p.r(A)p.r(U)p.r(C)p.r(U)p.r(U)p.r(C)p.r(T)p.r(T)}$$$RNA1{StrandType:ss}|RNA2{StrandType:as}$” had a target mRNA knockdown of 45%.
With “RNA1{r(G)p.r(C)p.[fl2r](U)p.r(G)p.r(A)p.r(A)p.r(C)p.[fl2r](U)p.r(A)p.r(G)p.r(U)p.r(C)p.r(G)p.r(A)p.r(A)p.r(A)p.r(G)p.r(A)p.r(A)p.r(T)p.r(T)}|RNA2{r(U)p.r(U)p.r(C)p.r(U)p.r(U)p.r(U)p.r(C)p.r(G)p.r(A)p.r(C)p.[fl2r](U)p.r(A)p.r(G)p.r(U)p.r(U)p.[fl2r](C)p.r(A)p.r(G)p.r(C)p.r(T)p.r(T)}$$$RNA1{StrandType:ss}|RNA2{StrandType:as}$”, the target mRNA knockdown was found to be 78%.
On to “RNA1{r(A)p.r(A)p.r(G)p.r(G)p.r(A)p.r(A)p.r(C)p.r(G)p.r(G)p.r(G)p.r(G)p.r(A)p.m(C)p.r(A)p.r(C)p.r(U)p.m(U)p.r(A)p.r(C)p.r(T)p.r(T)}|RNA2{r(G)p.m(U)p.r(A)p.r(A)p.r(G)p.m(U)p.r(G)p.r(U)p.r(C)p.r(C)p.r(C)p.r(C)p.r(G)p.r(U)p.r(U)p.r(C)p.r(C)p.r(U)p.r(U)p.r(T)p.r(T)}$$$RNA1{StrandType:ss}|RNA2{StrandType:as}$”, for which the target mRNA knockdown is 35%.
As for “RNA1{r(A)p.r(A)p.r(A)p.r(C)p.r(C)p.r(U)p.m(C)p.r(A)p.r(G)p.r(C)p.r(C)p.r(C)p.m(U)p.r(A)p.r(A)p.r(C)p.r(G)p.r(G)p.r(U)p.r(T)p.r(T)}|RNA2{r(A)p.r(C)p.r(C)p.r(G)p.r(U)p.m(U)p.r(A)p.r(G)p.r(G)p.r(G)p.r(C)p.m(U)p.r(G)p.r(A)p.r(G)p.r(G)p.r(U)p.r(U)p.r(U)p.r(T)p.r(T)}$$$RNA1{StrandType:ss}|RNA2{StrandType:as}$”, the target mRNA knockdown worked out at 70%.
As to “RNA1{r(A)p.r(C)p.r(C)p.r(U)p.r(U)p.r(U)p.r(C)p.r(C)p.r(A)p.r(C)p.r(U)p.r(U)p.r(C)p.r(U)p.r(A)p.r(A)p.r(G)p.r(C)p.r(C)p.r(T)p.r(T)}|RNA2{r(G)p.r(G)p.r(C)p.m(U)p.m(U)p.r(A)p.r(G)p.r(A)p.r(A)p.r(G)p.m(U)p.r(G)p.r(G)p.r(A)p.r(A)p.r(A)p.r(G)p.r(G)p.m(U)p.r(T)p.r(T)}$$$RNA1{StrandType:ss}|RNA2{StrandType:as}$”, the target mRNA knockdown is 80%.
In turn, “RNA1{r(G)p.r(G)p.r(C)p.r(C)p.r(U)p.r(U)p.r(U)p.r(C)p.r(A)p.r(C)p.r(U)p.r(A)p.r(C)p.r(U)p.r(C)p.r(C)p.r(U)p.r(A)p.r(C)p.d(T)p.d(T)}|RNA2{r(G)p.r(U)p.r(A)p.r(G)p.r(G)p.r(A)p.r(G)p.r(U)p.r(A)p.r(G)p.r(U)p.r(G)p.r(A)p.r(A)p.r(A)p.r(G)p.r(G)p.r(C)p.r(C)p.d(T)p.d(T)}$$$RNA1{StrandType:ss}|RNA2{StrandType:as}$” had a target mRNA knockdown of 36%.
The substance “RNA1{r(U)p.r(C)p.[fl2r](C)p.r(A)p.r(A)p.r(G)p.r(C)p.r(U)p.r(U)p.r(C)p.r(C)p.r(U)p.r(C)p.r(G)p.r(U)p.[fl2r](U)p.[fl2r](G)p.r(G)p.r(U)p.r(T)p.r(T)}|RNA2{r(A)p.r(C)p.[fl2r](C)p.[fl2r](A)p.r(A)p.r(C)p.r(G)p.r(A)p.r(G)p.r(G)p.r(A)p.r(A)p.r(G)p.r(C)p.r(U)p.[fl2r](U)p.r(G)p.r(G)p.r(A)p.r(T)p.r(T)}$$$RNA1{StrandType:ss}|RNA2{StrandType:as}$” had a target mRNA knockdown of 65%.
On to “RNA1{[lna](A)p.r(U)p.r(C)p.r(U)p.r(G)p.r(A)p.r(A)p.r(G)p.r(A)p.r(A)p.r(G)p.r(G)p.r(A)p.r(G)p.r(A)p.r(A)p.r(A)p.r(A)p.r(A)p.[lna](T)p.[lna](T)}|RNA2{[lna](T)p.r(U)p.r(U)p.r(U)p.r(U)p.r(C)p.r(U)p.r(C)p.r(C)p.r(U)p.r(U)p.r(C)p.r(U)p.r(U)p.r(C)p.r(A)p.r(G)p.r(A)p.r(U)p.[lna](T)p.[lna](T)}$$$RNA1{StrandType:ss}|RNA2{StrandType:as}$”, for which the target mRNA knockdown was 65% and 75%.
“RNA1{m(G)p.r(G)p.m(U)p.r(A)p.m(G)p.r(G)p.m(G)p.r(U)p.m(U)p.r(G)p.m(A)p.r(A)p.m(G)p.r(A)p.m(G)p.r(A)p.m(C)p.r(U)p.r(U)p.r(T)p.r(T)}|RNA2{r(A)p.r(A)p.r(G)p.r(U)p.r(C)p.r(U)p.r(C)p.r(U)p.r(U)p.r(C)p.r(A)p.r(A)p.m(C)p.r(C)p.r(C)p.r(U)p.m(A)p.r(C)p.r(C)p.r(T)p.r(T)}$$$RNA1{StrandType:ss}|RNA2{StrandType:as}$” had a target mRNA knockdown of 58%.
Substance “RNA1{r(C)p.r(G)p.r(U)p.r(A)p.r(C)p.r(G)p.r(C)p.r(G)p.r(G)p.r(A)p.r(A)p.r(U)p.r(A)p.r(C)p.r(U)p.r(U)p.r(C)p.r(G)p.r(A)p.r(T)p.r(T)}|RNA2{r(U)p.r(C)p.r(G)p.r(A)p.r(A)p.r(G)p.r(U)p.r(A)p.r(U)p.r(U)p.r(C)p.r(C)p.r(G)p.r(C)p.r(G)p.[s4r](U)p.[s4r](A)p.[s4r](C)p.[s4r](G)p.r(T)p.r(T)}$$$RNA1{StrandType:ss}|RNA2{StrandType:as}$” yielded a target mRNA knockdown of 85.6%.
For “RNA1{r(A)p.r(G)p.r(A)p.r(A)p.r(A)p.r(C)p.r(G)p.m(C)p.r(A)p.r(G)p.m(U)p.m(A)p.r(A)p.r(U)p.r(C)p.r(C)p.r(G)p.r(G)p.r(A)p.r(T)p.r(T)}|RNA2{r(U)p.r(C)p.r(C)p.r(G)p.r(G)p.r(A)p.r(U)p.m(U)p.r(A)p.r(C)p.m(U)p.r(G)p.r(C)p.r(G)p.r(U)p.r(U)p.r(U)p.r(C)p.r(U)p.r(T)p.r(T)}$$$RNA1{StrandType:ss}|RNA2{StrandType:as}$”, the target mRNA knockdown came to 78%.
Consider “RNA1{r(C)p.r(U)p.r(U)p.r(A)p.r(C)p.r(G)p.r(C)p.r(U)p.r(G)p.r(A)p.r(G)p.r(U)p.r(A)p.r(C)p.r(U)p.r(U)p.r(C)p.r(G)p.r(A)p.r(T)p.r(T)}|RNA2{r(T)p.r(C)p.r(G)p.r(A)p.r(A)p.r(G)p.r(U)p.r(A)p.r(C)p.[lna](T)p.r(C)p.r(A)p.r(G)p.r(C)p.r(G)p.r(U)p.r(A)p.r(A)p.r(G)p.[lna](T)p.[lna](T)}$$$RNA1{StrandType:ss}|RNA2{StrandType:as}$”, for which the target mRNA knockdown is 60%.
The substance “RNA1{r(A)p.m(C)p.m(C)p.m(U)p.m(U)p.m(U)p.m(C)p.m(C)p.r(A)p.m(C)p.m(U)p.m(U)p.m(C)p.m(U)p.r(A)p.r(A)p.r(G)p.m(C)p.m(C)p.r(T)p.r(T)}|RNA2{r(G)p.r(G)p.r(C)p.r(U)p.r(U)p.r(A)p.r(G)p.r(A)p.r(A)p.r(G)p.r(U)p.r(G)p.r(G)p.r(A)p.r(A)p.r(A)p.r(G)p.r(G)p.r(U)p.r(T)p.r(T)}$$$RNA1{StrandType:ss}|RNA2{StrandType:as}$” registered a target mRNA knockdown of 75%.
For the substance “RNA1{m(G)p.r(A)p.m(A)p.r(U)p.m(A)p.r(A)p.m(C)p.r(C)p.m(U)p.r(G)p.m(A)p.r(A)p.m(C)p.r(G)p.m(U)p.r(C)p.m(A)p.r(C)p.m(C)p.r(T)p.r(T)}|RNA2{r(G)p.r(G)p.r(U)p.r(G)p.m(A)p.r(C)p.r(G)p.r(U)p.r(U)p.r(C)p.m(A)p.r(G)p.r(G)p.r(U)p.r(U)p.m(A)p.r(U)p.r(U)p.r(C)p.r(T)p.r(T)}$$$RNA1{StrandType:ss}|RNA2{StrandType:as}$”, the target mRNA knockdown came to 21%.
“RNA1{[fl2r](C)p.r(G)p.[fl2r](G)p.r(G)p.[fl2r](U)p.r(A)p.[fl2r](C)p.r(G)p.[fl2r](A)p.r(G)p.[fl2r](C)p.r(C)p.[fl2r](G)p.r(G)p.[fl2r](A)p.r(A)p.[fl2r](C)p.r(C)p.r(U)p.r(T)p.r(T)}|RNA2{r(A)p.r(G)p.r(G)p.r(U)p.r(U)p.r(C)p.r(C)p.r(G)p.r(G)p.r(C)p.r(U)p.r(C)p.r(G)p.r(U)p.r(A)p.r(C)p.r(C)p.r(C)p.r(G)p.r(T)p.r(T)}$$$RNA1{StrandType:ss}|RNA2{StrandType:as}$”: the target mRNA knockdown amounted to 61%.
